Measurements reported in the supplement of paper PMC11061612.

How the values were obtained:
Paclitaxel = compound: CC(=O)O[C@H]1C(=O)[C@@]2(C)[C@H]([C@H](OC(=O)c3ccccc3)[C@]3(O)C[C@H](OC(=O)[C@H](O)[C@@H](NC(=O)c4ccccc4)c4ccccc4)C(C)=C1C3(C)C)[C@]1(OC(C)=O)CO[C@@H]1C[C@@H]2O [Paclitaxel]; details: max 3 µM
In short: (§1)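 Cancer cell lines were seeded into 1536-well plates in 7.5 μl medium (DMEM/F12 or RPMI, 10% FBS), held 24 hours at 37°C and 5% CO2, and dosed for 72 hours with final DMSO typically 0.2%. Luminescence from CellTiter-Glo 2.0, scaled between blank-well and DMSO-well means, served as viability. The single-agent IC50 was obtained from dose-response fits with a non-linear mixed effects model, each fit being a two-parameter logistic curve.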

AZD5363 = compound: C1CN(CCC1(C(=O)N[C@@H](CCO)C2=CC=C(C=C2)Cl)N)C3=NC=NC4=C3C=CN4 [AZD5363]; details: max 10 µM
In short: as §1

[1] = compound: O=C(Nc1ccc2[nH]nc(-c3ccncc3)c2c1)[C@@H]1CCN(CC(=O)N2CCN(c3ccc(-c4ncccn4)cc3)CC2)C1; details: max 5 µM
In short: as §1

AZD1390 = compound: CC(C)n1c(=O)n(C)c2cnc3cc(F)c(-c4ccc(OCCCN5CCCCC5)nc4)cc3c21 [AZD1390]; details: max 0.3 µM
In short: as §1

Palbociclib = compound: CC(=O)c1c(C)c2cnc(Nc3ccc(N4CCNCC4)cn3)nc2n(C2CCCC2)c1=O [Palbociclib]; details: max 10 µM
In short: as §1

MK-2206 = compound: NC1(c2ccc(-c3nc4ccn5c(=O)[nH]nc5c4cc3-c3ccccc3)cc2)CCC1 [MK-2206]; details: max 10 µM
In short: as §1

Dasatinib = compound: CC1=C(C(=CC=C1)Cl)NC(=O)C2=CN=C(S2)NC3=CC(=NC(=N3)C)N4CCN(CC4)CCO [Dasatinib]; details: max 2 µM
In short: as §1

Lapatinib = compound: CS(=O)(=O)CCNCc1ccc(-c2ccc3ncnc(Nc4ccc(OCc5cccc(F)c5)c(Cl)c4)c3c2)o1 [Lapatinib]; details: max 10 µM
In short: as §1

Prexasertib = compound: COc1cccc(OCCCN)c1-c1cc(Nc2cnc(C#N)cn2)n[nH]1 [Prexasertib]; details: max 1 µM
In short: as §1

AZD0156 = compound: CN(C)CCCOc1ccc(-c2ccc3ncc4c(c3c2)n(C2CCOCC2)c(=O)n4C)cn1 [AZD0156]; details: max 3 µM
In short: as §1

Gemcitabine = compound: Nc1ccn([C@@H]2O[C@H](CO)[C@@H](O)C2(F)F)c(=O)n1 [Gemcitabine]; details: max 0.3 µM
In short: as §1

Etoposide = compound: COc1cc([C@@H]2c3cc4c(cc3[C@@H](O[C@@H]3O[C@@H]5CO[C@@H](C)O[C@H]5[C@H](O)[C@H]3O)[C@H]3COC(=O)[C@H]23)OCO4)cc(OC)c1O [Etoposide]; details: max 10 µM
In short: as §1

Carboplatin = compound: C1CC(C1)(C(=O)[O-])C(=O)[O-].N.N.[Pt+2] [Carboplatin]; details: max 10 µM
In short: as §1

Doxorubicin = compound: COc1cccc2c1C(=O)c1c(O)c3c(c(O)c1C2=O)C[C@@](O)(C(=O)CO)C[C@@H]3O[C@H]1C[C@H](N)[C@H](O)[C@H](C)O1 [Doxorubicin]; details: max 1 µM
In short: as §1

Savolitinib = compound: C[C@@H](c1ccc2nccn2c1)n1nnc2ncc(-c3cnn(C)c3)nc21 [Savolitinib]; details: max 1 µM
In short: as §1

SN-38 = compound: CCc1c2c(nc3ccc(O)cc13)-c1cc3c(c(=O)n1C2)COC(=O)[C@]3(O)CC [SN-38]; details: max 0.3 µM
In short: as §1

Taselisib = compound: Cc1nc(-c2cn3c(n2)-c2ccc(-c4cnn(C(C)(C)C(N)=O)c4)cc2OCC3)n(C(C)C)n1 [Taselisib]; details: max 10 µM
In short: as §1

AZD4320 = compound: CN(CC[C@H](CSC1=CC=CC=C1)NC2=C(C=C(C=C2)S(=O)(=O)NC(=O)C3=CC=C(C=C3)N4CCC(CC4)[C@H](C5=CC=CC=C5C6=CC=C(C=C6)Cl)O)S(=O)(=O)C(F)(F)F)CCO [AZD4320]; details: max 1 µM
In short: as §1

Trametinib = compound: CC(=O)Nc1cccc(-n2c(=O)n(C3CC3)c(=O)c3c(Nc4ccc(I)cc4F)n(C)c(=O)c(C)c32)c1 [Trametinib]; details: max 1 µM
In short: as §1

AZD8186 = compound: C[C@@H](Nc1cc(F)cc(F)c1)c1cc(C(=O)N(C)C)cc2c(=O)cc(N3CCOCC3)oc12 [AZD8186]; details: max 10 µM
In short: as §1

AZD1775 = compound: C=CCn1c(=O)c2cnc(Nc3ccc(N4CCN(C)CC4)cc3)nc2n1-c1cccc(C(C)(C)O)n1 [AZD1775]; details: max 3 µM
In short: as §1

5-Fluorouracil = compound: O=c1[nH]cc(F)c(=O)[nH]1 [5-Fluorouracil]; details: max 20 µM
In short: as §1

Gefitinib = compound: COc1cc2ncnc(Nc3ccc(F)c(Cl)c3)c2cc1OCCCN1CCOCC1 [Gefitinib]; details: max 10 µM
In short: as §1

Olaparib = compound: O=C(c1cc(Cc2n[nH]c(=O)c3ccccc23)ccc1F)N1CCN(C(=O)C2CC2)CC1 [Olaparib]; details: max 10 µM
In short: as §1

SRA737 = compound: N#Cc1cnc(Nc2cc(NC[C@H]3CNCCO3)c(C(F)(F)F)cn2)cn1 [SRA737]; details: max 10 µM
In short: as §1

AZD5153 = compound: COc1nnc2ccc(N3CCC(c4ccc(OCCN5CCN(C)C(=O)[C@H]5C)cc4)CC3)nn12 [AZD5153]; details: max 1 µM
In short: as §1

Crizotinib = compound: C[C@@H](Oc1cc(-c2cnn(C3CCNCC3)c2)cnc1N)c1c(Cl)ccc(F)c1Cl [Crizotinib]; details: max 10 µM
In short: as §1

AZD6738 = compound: C[C@@H]1COCCN1C2=NC(=NC(=C2)C3(CC3)[S@](=N)(=O)C)C4=C5C=CNC5=NC=C4 [AZD6738]; details: max 10 µM
In short: as §1

Selumetinib = compound: Cn1cnc2c(F)c(Nc3ccc(Br)cc3Cl)c(C(=O)NOCCO)cc21 [Selumetinib]; details: max 10 µM
In short: as §1

Alisertib = compound: COc1cc(Nc2ncc3c(n2)-c2ccc(Cl)cc2C(c2c(F)cccc2OC)=NC3)ccc1C(=O)O [Alisertib]; details: max 10 µM
In short: as §1

AZD2811 = compound: CCN(CCO)CCCOc1ccc2c(Nc3cc(CC(=O)Nc4cccc(F)c4)[nH]n3)ncnc2c1 [AZD2811]; details: max 1 µM
In short: as §1

AZD7648 = compound: Cc1cc2ncnn2cc1Nc1ncc2c(n1)n(C1CCOCC1)c(=O)n2C [AZD7648]; details: max 10 µM
In short: as §1

AZD5991 = compound: Cc1c2c(nn1C)CSCc1cc(n(C)n1)CSc1cc(c3ccccc3c1)OCCCc1c(C(=O)O)n(C)c3c-2c(Cl)ccc13 [AZD5991]; details: max 1 µM
In short: as §1

Venetoclax = compound: CC1(C)CCC(CN2CCN(c3ccc(C(=O)NS(=O)(=O)c4ccc(NCC5CCOCC5)c([N+](=O)[O-])c4)c(Oc4cnc5[nH]ccc5c4)c3)CC2)=C(c2ccc(Cl)cc2)C1 [Venetoclax]; details: max 1 µM
In short: as §1

SG3199 = compound: CC1=CN2[C@@H](C1)C=NC3=CC(=C(C=C3C2=O)OC)OCCCCCOC4=C(C=C5C(=C4)N=C[C@@H]6CC(=CN6C5=O)C)OC [SG3199]; details: max 0.001 µM
In short: as §1

Cell Line | IC50, cell viability 72 h (Paclitaxel) [nM] | IC50, cell viability 72 h (AZD5363) [nM] | IC50, cell viability 72 h [1] [nM] | IC50, cell viability 72 h (AZD1390) [nM] | IC50, cell viability 72 h (Palbociclib) [nM] | IC50, cell viability 72 h (MK-2206) [nM] | IC50, cell viability 72 h (Dasatinib) [nM] | IC50, cell viability 72 h (Lapatinib) [nM] | IC50, cell viability 72 h (Prexasertib) [nM] | IC50, cell viability 72 h (AZD0156) [nM] | IC50, cell viability 72 h (Gemcitabine) [nM] | IC50, cell viability 72 h (Etoposide) [nM] | IC50, cell viability 72 h (Carboplatin) [nM] | IC50, cell viability 72 h (Doxorubicin) [nM] | IC50, cell viability 72 h (Savolitinib) [nM] | IC50, cell viability 72 h (SN-38) [nM] | IC50, cell viability 72 h (Taselisib) [nM] | IC50, cell viability 72 h (AZD4320) [nM] | IC50, cell viability 72 h (Trametinib) [nM] | IC50, cell viability 72 h (AZD8186) [nM] | IC50, cell viability 72 h (AZD1775) [nM] | IC50, cell viability 72 h (5-Fluorouracil) [nM] | IC50, cell viability 72 h (Gefitinib) [nM] | IC50, cell viability 72 h (Olaparib) [nM] | IC50, cell viability 72 h (SRA737) [nM] | IC50, cell viability 72 h (AZD5153) [nM] | IC50, cell viability 72 h (Crizotinib) [nM] | IC50, cell viability 72 h (AZD6738) [nM] | IC50, cell viability 72 h (Selumetinib) [nM] | IC50, cell viability 72 h (Alisertib) [nM] | IC50, cell viability 72 h (AZD2811) [nM] | IC50, cell viability 72 h (AZD7648) [nM] | IC50, cell viability 72 h (AZD5991) [nM] | IC50, cell viability 72 h (Venetoclax) [nM] | IC50, cell viability 72 h (SG3199) [nM]
SW13 (Other Solid Carcinomas) | 6.09 | > 10000 | > 5000 | > 300 | > 10000 | > 10000 | 1250 | 4460 | > 1000 | > 3000 | 27.1 | 4890 | > 10000 | 394 | > 1000 | 5.19 | > 10000 | > 1000 | 804 | > 10000 | > 3000 | > 20000 | > 10000 | > 10000 | > 10000 | > 1000 | > 10000 | > 10000 | > 10000 | > 10000 | > 1000 | > 10000 | 212 | > 1000 | > 1
TGW (Neuroblastoma) | 108 | > 10000 | > 5000 | > 300 | > 10000 | > 10000 | > 2000 | > 10000 | 27.7 | > 3000 | 159 | > 10000 | > 10000 | 521 | > 1000 | 50.5 | > 10000 | 127 | > 1000 | > 10000 | 571 | > 20000 | > 10000 | > 10000 | > 10000 | > 1000 | 6840 | 7370 | > 10000 | 162 | > 1000 | > 10000 | > 1000 | > 1000 | > 1
TK10 (Kidney Carcinoma) | 715 | > 10000 | > 5000 | > 300 | > 10000 | > 10000 | 437 | 8300 | 159 | > 3000 | > 300 | > 10000 | > 10000 | > 1000 | > 1000 | > 300 | 5340 | > 1000 | > 1000 | > 10000 | 2870 | > 20000 | 9990 | > 10000 | > 10000 | 903 | > 10000 | > 10000 | > 10000 | > 10000 | > 1000 | > 10000 | > 1000 | > 1000 | > 1
UACC-62 (Melanoma) | 598 | > 10000 | 84.6 | > 300 | > 10000 | > 10000 | > 2000 | > 10000 | 136 | > 3000 | > 300 | > 10000 | > 10000 | 373 | > 1000 | 15.6 | 4610 | > 1000 | 4.06 | 3990 | > 3000 | > 20000 | > 10000 | > 10000 | > 10000 | > 1000 | > 10000 | > 10000 | 284 | > 10000 | > 1000 | > 10000 | 282 | > 1000 | > 1
YH-13 (Glioblastoma) | 3.82 | > 10000 | > 5000 | > 300 | > 10000 | > 10000 | 837 | > 10000 | 76.3 | > 3000 | 114 | > 10000 | > 10000 | > 1000 | > 1000 | 159 | 2990 | > 1000 | > 1000 | 2850 | > 3000 | > 20000 | > 10000 | > 10000 | > 10000 | 534 | > 10000 | > 10000 | > 10000 | > 10000 | > 1000 | > 10000 | > 1000 | > 1000 | > 1
